Data published in ChEMBL document CHEMBL1156379, “Furanosesquiterpenoids of Commiphora myrrha” (J Nat Prod, 2001).

Test system: MCF7; call rule not given here
Assay: Cytotoxicity against human MCF7 cells after 15 days by clonogenic assay
Format: functional, cell-based

Row | Structure (SMILES) | IC50 (mcf7) | IC50 (Homo sapiens, MCF7, 360 h, read-out: IC50)
1 | CO[C@H]1/C=C(\C)Cc2occ(C)c2C(=O)C[C@H](C)C1 (relative stereo) | Not Active | –
2 | CO[C@H]1/C=C(/C)Cc2occ(C)c2C(=O)[C@@H](OC(C)=O)[C@H](C)C1 (relative stereo) | Not Active | –
3 | C=C1/C=C/[C@H](OC)[C@@H](C)CC(=O)c2c(C)coc2C1 (relative stereo) | Not Active | –
4 | C=C1Cc2occ(C)c2C(=O)C[C@H](C)C[C@@H]2O[C@@H]12 (relative stereo) | – | 40 µM
